Test results: patent US9475028B2 (priority 2006, dated 2016)
“Also recorded” adds a separate entry of the source.

System: A549 (Lung Mesothelial Carcinoma) cells
Type: cell-based

Which “observed damage to cells” value does the source give for C60(OH)n (n˜1-48) [PHF] here?
The value was “restricted to the top layer of cells; also recorded: damage of multiple layers of cells”.
